# Assay results: the supplement of paper PMC10307832
# Legend:
# Test in all cases: relative viability (nuclei count vs DMSO), 5 days (fraction); higher = more cells survive
# NCI-H3122 = system: NCI-H3122
# Outline: (§1)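 Relative viability was taken as the ratio of nuclei in treated wells to nuclei in vehicle wells. Lung cancer cell lines in 1536-well plates received compounds by pin tool one day after seeding, either one drug alone or a fixed anchor-drug dose plus five library-drug doses (not always all listed) in √10 steps. Nuclei were counted on 4× images after 5 days of treatment, and values are medians of duplicate plates.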
# EPLC-272H = system: EPLC-272H
# Outline: as §1
# NCI-H1975 = system: NCI-H1975
# Outline: as §1
# NCI-H441 = system: NCI-H441
# Outline: as §1
# NCI-H1755 = system: NCI-H1755
# Outline: as §1
# NCI-H2085 = system: NCI-H2085
# Outline: as §1
# ChaGo-K-1 = system: ChaGo-K-1
# Outline: as §1
# NCI-H2126 = system: NCI-H2126
# Outline: as §1
# HOP-62 = system: HOP-62
# Outline: as §1
# ABC-1 = system: ABC-1
# Outline: as §1
# HCC-78 = system: HCC-78
# Outline: as §1
# NCI-H1993 = system: NCI-H1993
# Outline: as §1
# NCI-H2023 = system: NCI-H2023
# Outline: as §1
# HCC-15 = system: HCC-15
# Outline: as §1
# NCI-H1915 = system: NCI-H1915
# Outline: as §1
# COR-L 105 = system: COR-L 105
# Outline: as §1
# UMC-11 = system: UMC-11
# Outline: as §1
# LXF-289 = system: LXF-289
# Outline: as §1
# NCI-H322M = system: NCI-H322M
# Outline: as §1
# NCI-H1666 = system: NCI-H1666
# Outline: as §1
# EMC-BAC-2 = system: EMC-BAC-2
# Outline: as §1
# CAL-12T = system: CAL-12T
# Outline: as §1
structure (smiles),measurement,setting,value
COc1cc(N2CCC(C(N)=O)CC2)ccc1Nc1nc(N)c(Cl)c(Nc2ccccc2S(=O)(=O)C(C)C)n1 [HG-5-88-01] + CC(C)C[C@H](NC(=O)[C@H](Cc1ccccc1)NC(=O)c1cnccn1)B(O)O [Bortezomib] (partner 0.002 µM),relative viability,NCI-H3122; first compound 0.04 µM,0.894
same,relative viability,NCI-H3122; first compound 0.1265 µM,0.647
same,relative viability,NCI-H3122; first compound 0.4 µM,0.335
same,relative viability,NCI-H3122; first compound 1.265 µM,0.296
same,relative viability,NCI-H3122; first compound 4 µM,0.216
same,relative viability,EPLC-272H; first compound 0.04 µM,0.854
same,relative viability,EPLC-272H; first compound 0.1265 µM,0.941
same,relative viability,EPLC-272H; first compound 0.4 µM,1
same,relative viability,EPLC-272H; first compound 1.265 µM,0.851
same,relative viability,EPLC-272H; first compound 4 µM,0.385
same,relative viability,NCI-H1975; first compound 0.04 µM,0.349
same,relative viability,NCI-H1975; first compound 0.1265 µM,0.452
same,relative viability,NCI-H1975; first compound 0.4 µM,0.381
same,relative viability,NCI-H1975; first compound 1.265 µM,0.344
same,relative viability,NCI-H1975; first compound 4 µM,0.23
same,relative viability,NCI-H441; first compound 0.04 µM,0.579
same,relative viability,NCI-H441; first compound 0.1265 µM,0.423
same,relative viability,NCI-H441; first compound 0.4 µM,0.622
same,relative viability,NCI-H441; first compound 1.265 µM,0.558
same,relative viability,NCI-H441; first compound 4 µM,0.379
same,relative viability,NCI-H1755; first compound 0.1265 µM,0.911
same,relative viability,NCI-H1755; first compound 0.4 µM,0.885
same,relative viability,NCI-H1755; first compound 1.265 µM,0.92
same,relative viability,NCI-H1755; first compound 4 µM,0.975
same,relative viability,NCI-H2085; first compound 0.04 µM,0.986
same,relative viability,NCI-H2085; first compound 0.1265 µM,1.13
same,relative viability,NCI-H2085; first compound 0.4 µM,0.922
same,relative viability,NCI-H2085; first compound 1.265 µM,1.01
same,relative viability,NCI-H2085; first compound 4 µM,0.917
same,relative viability,ChaGo-K-1; first compound 0.04 µM,1.11
same,relative viability,ChaGo-K-1; first compound 0.1265 µM,0.983
same,relative viability,ChaGo-K-1; first compound 0.4 µM,0.976
same,relative viability,ChaGo-K-1; first compound 1.265 µM,1.02
same,relative viability,ChaGo-K-1; first compound 4 µM,0.785
same,relative viability,NCI-H2126; first compound 0.04 µM,1.16
same,relative viability,NCI-H2126; first compound 0.1265 µM,1.12
same,relative viability,NCI-H2126; first compound 0.4 µM,1.13
same,relative viability,NCI-H2126; first compound 1.265 µM,1.15
same,relative viability,NCI-H2126; first compound 4 µM,1.12
same,relative viability,HOP-62; first compound 0.04 µM,0.684
same,relative viability,HOP-62; first compound 0.1265 µM,0.732
same,relative viability,HOP-62; first compound 0.4 µM,0.77
same,relative viability,HOP-62; first compound 1.265 µM,0.76
same,relative viability,HOP-62; first compound 4 µM,0.732
same,relative viability,ABC-1; first compound 0.04 µM,0.335
same,relative viability,ABC-1; first compound 0.1265 µM,0.332
same,relative viability,ABC-1; first compound 0.4 µM,0.237
same,relative viability,ABC-1; first compound 1.265 µM,0.321
same,relative viability,ABC-1; first compound 4 µM,0.283
same,relative viability,HCC-78; first compound 0.04 µM,0.467
same,relative viability,HCC-78; first compound 0.1265 µM,0.369
same,relative viability,HCC-78; first compound 0.4 µM,0.393
same,relative viability,HCC-78; first compound 1.265 µM,0.218
same,relative viability,HCC-78; first compound 4 µM,0.211
same,relative viability,NCI-H1993; first compound 0.04 µM,1.08
same,relative viability,NCI-H1993; first compound 0.1265 µM,1.08
same,relative viability,NCI-H1993; first compound 0.4 µM,0.971
same,relative viability,NCI-H1993; first compound 1.265 µM,0.819
same,relative viability,NCI-H1993; first compound 4 µM,1.02
same,relative viability,NCI-H2023; first compound 0.04 µM,1.08
same,relative viability,NCI-H2023; first compound 0.1265 µM,1.34
same,relative viability,NCI-H2023; first compound 0.4 µM,0.753
same,relative viability,NCI-H2023; first compound 1.265 µM,0.542
same,relative viability,NCI-H2023; first compound 4 µM,0.454
same,relative viability,HCC-15; first compound 0.04 µM,1
same,relative viability,HCC-15; first compound 0.1265 µM,1.09
same,relative viability,HCC-15; first compound 0.4 µM,0.966
same,relative viability,HCC-15; first compound 1.265 µM,1.02
same,relative viability,HCC-15; first compound 4 µM,0.746
same,relative viability,NCI-H1915; first compound 0.04 µM,0.977
same,relative viability,NCI-H1915; first compound 0.1265 µM,0.941
same,relative viability,NCI-H1915; first compound 0.4 µM,0.941
same,relative viability,NCI-H1915; first compound 1.265 µM,0.974
same,relative viability,NCI-H1915; first compound 4 µM,0.621
same,relative viability,COR-L 105; first compound 0.04 µM,0.875
same,relative viability,COR-L 105; first compound 0.1265 µM,0.77
same,relative viability,COR-L 105; first compound 0.4 µM,0.619
same,relative viability,COR-L 105; first compound 1.265 µM,0.375
same,relative viability,COR-L 105; first compound 4 µM,0.531
same,relative viability,UMC-11; first compound 0.04 µM,0.769
same,relative viability,UMC-11; first compound 0.1265 µM,0.82
same,relative viability,UMC-11; first compound 0.4 µM,0.642
same,relative viability,UMC-11; first compound 1.265 µM,0.837
same,relative viability,UMC-11; first compound 4 µM,0.494
same,relative viability,LXF-289; first compound 0.04 µM,1.04
same,relative viability,LXF-289; first compound 0.1265 µM,0.994
same,relative viability,LXF-289; first compound 0.4 µM,0.909
same,relative viability,LXF-289; first compound 1.265 µM,1.05
same,relative viability,LXF-289; first compound 4 µM,0.981
same,relative viability,NCI-H322M; first compound 0.04 µM,1.22
same,relative viability,NCI-H322M; first compound 0.1265 µM,1.04
same,relative viability,NCI-H322M; first compound 0.4 µM,1.38
same,relative viability,NCI-H322M; first compound 1.265 µM,1.23
same,relative viability,NCI-H322M; first compound 4 µM,1.08
same,relative viability,NCI-H1666; first compound 0.04 µM,0.944
same,relative viability,NCI-H1666; first compound 0.1265 µM,0.897
same,relative viability,NCI-H1666; first compound 0.4 µM,0.597
same,relative viability,NCI-H1666; first compound 1.265 µM,0.58
same,relative viability,NCI-H1666; first compound 4 µM,0.452
same,relative viability,EMC-BAC-2; first compound 0.04 µM,1.07
same,relative viability,EMC-BAC-2; first compound 0.1265 µM,1.06
same,relative viability,EMC-BAC-2; first compound 0.4 µM,1.04
same,relative viability,EMC-BAC-2; first compound 1.265 µM,1.09
same,relative viability,EMC-BAC-2; first compound 4 µM,0.931
same,relative viability,CAL-12T; first compound 0.04 µM,1.16
same,relative viability,CAL-12T; first compound 0.1265 µM,0.897
same,relative viability,CAL-12T; first compound 0.4 µM,0.837
same,relative viability,CAL-12T; first compound 1.265 µM,0.955
same,relative viability,CAL-12T; first compound 4 µM,0.579
